Source: US20040198754A1, “Composition and method for appetite and craving suppression and mood enhancement” (Pro-Health, Inc., priority 2003, published 2004)

Assay: Individual human case reports of oral theobromine tablets (appetite, cravings, mood, energy, weight, side effects), with earlier use of commercial diet products
Type: in vivo
Excerpt: They lost 18 lbs., and did report having a headache. No other side effects were reported.
No other side effects were reported.
They lost 9 lbs. in 21 days.
They also took Metabolife 356® made by Metabolife International Inc. which contains a caffeine-ephedrine combination.
A person had been taking Xenadrine EFX (ephedrine free, contains synephrine) to try to stop smoking while losing weight, but with little effect on their appetite and nicotine craving. […] They discontinued use of theobromine over a weekend, and noted that the urge to smoke again became strong. […] They were also exercising, and despite quitting smoking at the same time, lost 4.5 pounds, and reported fitting into clothes that they hadn't been able to wear for several years.

[1] = person, 500 mg. theobromine 4 times per day for 21 days
[2] = person, 2 grams per day for 12 days
[3] = person, 3,250 mg. tablets per day for 10 days
[4] = person, 4, 250 mg. tablets four times per day for 21 days
[5] = person, up to 2 grams daily for 28 days
[6] = smoker, 750 mg. theobromine per day for three weeks

With `Cn1cnc2c1c(=O)[nH]c(=O)n2C` [theobromine, 3,7-dimethylxanthine] the “craving for sweets (self-reported)” value (person with lifelong cravings for sweets, one 250 mg. tablet per day) was “no craving for such sweets”, the “appetite (self-reported)” value (person, 500 mg. of Theobromine) was “appetite suppression” and the “energy (self-reported)” value (person, 500 mg. of Theobromine) was “good energy”. The “mood (self-reported)” value (person, 500 mg. of Theobromine) was “sense of well being”, the “appetite and food cravings (self-reported)” value [1] was “reduced appetite and food cravings” and the “energy (self-reported)” value [1] was “increased energy without a stimulant high”. The weight lost [1] was 8 lbs, the weight lost (person, 750 mg. theobromine per day for three weeks, also exercising and quitting smoking) was 4.5 pounds and the “appetite (self-reported)” value [2] was “less appetite”. The “energy, mood and thinking (self-reported)” value [2] was “more energy, improved mood and clearer thinking”, the weight loss [2] was 5 pound and the “appetite (self-reported)” value [3] was “reduced appetite”. For the same compound, the “energy (self-reported)” value [3] was “excellent energy”, the “mood (self-reported)” value [3] was “euphoric calmness to their mood” and the weight lost [3] was 8 lbs. The “appetite (self-reported)” value [4] was “reduced appetite”, the “mood and energy (self-reported)” value [4] was “elevated mood, more energy” and the weight lost [4] was 18 lbs. The “appetite (self-reported)” value [5] was “lowered appetite”, the “energy or mood (self-reported)” value [5] was “no energy or mood difference” and the weight lost (person, up to 2 grams daily, in 21 days) was 9 lbs. For the same compound, the “appetite (self-reported)” value [6] was “reduced appetite”, the “cravings for chocolate prior to menses (self-reported)” value [6] was “reduction in cravings for chocolate” and the “mood (self-reported)” value [6] was “much calmer and less angry”. For the same compound, the “urge to smoke (self-reported)” value [6] was “loss of the urge to smoke”.
